Earlier results in patent US20230139565A1 (GLANIS PHARMACEUTICALS, INC., priority 2020, published 2023).
Where a name gives a salt, the structure may show the parent alone.

Legend:
[1] = tested on: albumin and aphal-acid glycoprotein
[2] = not given; remark: listed apart in the source

## CCN(CCO)CCCC(C)Nc1ccnc2cc(Cl)ccc12 (stereo not shown) [HCQ, Hydroxychloroquine]
blood
  terminal half-life based on blood concentration: 30 to 60 days
Following 200 mg oral dose
  time of peak concentration: around 3 hours
Following 200 mg oral dose, blood
  peak concentration in blood: around 129.6 ng/ml
Following 200 mg oral dose, plasma
  plasma concentration (peak): around 50.3 ng/ml
In vivo
  half-life: ~2.08 days
  volume of distribution: high volume of distribution
Oral tablet
  oral bioavailability: about 75%
[1]
  protein binding: ~40%

## CCN(CCO)CCCC(C)Nc1ccnc2cc(Cl)ccc12 (stereo not shown) [Hydroxychloroquine sulfate]
[2]; alcohol, chloroform, ether
  solubility in alcohol, chloroform, and in ether: practically insoluble
[2]; water
  solubility in water: freely soluble
